Conditions: 101.33 kPa, Liquid; for mass density: Vibrating tube method

CCCCCCCCCCCCCCCCCCCC(=O)OCC [ethyl eicosanoate]
Conditions | mass density [kg/m3] | viscosity [mPa·s]
318.15 K | 841.2 | 5.657
323.15 K | 837.7 | 4.973
328.15 K | 834.1 | 4.507
333.15 K | 830.5 | 4.058
338.15 K | 827 | 3.671
343.15 K | 823.5 | 3.337
348.15 K | 820 | 3.046
353.15 K | 816.6 | 2.78
358.15 K | 813.2 | 2.569
363.15 K | 809.7 | 2.372
368.15 K | 806.1 | 2.196
373.15 K | 802.4 | 2.039

CCCCCCCC/C=C\CCCCCCCCCCCC(=O)OC [methyl (Z)-13-docosenoate]
Conditions | mass density [kg/m3] | viscosity [mPa·s]
278.15 K | 881.6 | 18.09
283.15 K | 877.9 | 14.94
288.15 K | 874.3 | 12.56
293.15 K | 870.7 | 10.66
298.15 K | 867.1 | 9.141
303.15 K | 863.6 | 7.907
308.15 K | 860 | 6.917
313.15 K | 856.5 | 5.958
318.15 K | 853 | 5.402
323.15 K | 849.4 | 4.76
328.15 K | 845.9 | 4.331
333.15 K | 842.4 | 3.91
338.15 K | 839 | 3.548
343.15 K | 835.5 | 3.234
348.15 K | 832 | 2.961
353.15 K | 828.6 | 2.707
358.15 K | 825.1 | 2.51
363.15 K | 821.7 | 2.322

CCCCC/C=C\C/C=C\CCCCCCCC(=O)OCC [ethyl linoleate]
Conditions | mass density [kg/m3] | viscosity [mPa·s]
278.15 K | 893.8 | 8.188
283.15 K | 890 | 7.084
288.15 K | 886.3 | 6.165
293.15 K | 882.6 | 5.423
298.15 K | 878.8 | 4.807
303.15 K | 875.2 | 4.307
308.15 K | 871.5 | 3.854
313.15 K | 867.8 | 3.406
318.15 K | 864.2 | 3.161
323.15 K | 860.6 | 2.829
328.15 K | 856.9 | 2.641
333.15 K | 853.3 | 2.429
338.15 K | 849.7 | 2.241
343.15 K | 846 | 2.075
348.15 K | 842.4 | 1.927
353.15 K | 838.8 | 1.773
358.15 K | 835.2 | 1.676
363.15 K | 831.6 | 1.569

CCCCCCCCCCCCCCCCCCCCCCCC(=O)OC [methyl tetracosanoate]
Conditions | mass density [kg/m3] | viscosity [mPa·s]
338.15 K | 830.5 | 5.139
343.15 K | 827.1 | 4.628
348.15 K | 823.7 | 4.189
353.15 K | 820.3 | 3.81
358.15 K | 816.9 | 3.48
363.15 K | 813.5 | 3.19
368.15 K | 810.1 | 2.933
373.15 K | 806.8 | 2.707

CCCCCCCCCCCCCCCCCCCCCC(=O)OC [methyl docosanoate]
Conditions | mass density [kg/m3] | viscosity [mPa·s]
333.15 K | 834.5 | 4.749
338.15 K | 831 | 4.274
343.15 K | 827.5 | 3.866
348.15 K | 824.1 | 3.513
353.15 K | 820.6 | 3.207
358.15 K | 817.2 | 2.939
363.15 K | 813.7 | 2.709
368.15 K | 810.3 | 2.502
373.15 K | 806.9 | 2.317

CCCCCCCCCCCCCCCCCCCC(=O)OC [methyl eicosanoate]
Conditions | mass density [kg/m3] | viscosity [mPa·s]
323.15 K | 842.3 | 4.832
328.15 K | 838.7 | 4.323
333.15 K | 834.9 | 3.889
338.15 K | 831.4 | 3.517
343.15 K | 827.8 | 3.196
348.15 K | 824.3 | 2.918
353.15 K | 820.8 | 2.674
358.15 K | 817.3 | 2.461
363.15 K | 813.8 | 2.273
368.15 K | 810.4 | 2.107
373.15 K | 807 | 1.959

CCCCCCCC/C=C\CCCCCCCCCC(=O)OC [methyl cis-11-eicosenoate]
Conditions | mass density [kg/m3] | viscosity [mPa·s]
278.15 K | 884.8 | 14.34
283.15 K | 881.1 | 11.97
288.15 K | 877.5 | 10.13
293.15 K | 873.8 | 8.667
298.15 K | 870.2 | 7.488
303.15 K | 866.6 | 6.528
308.15 K | 863 | 5.738
313.15 K | 859.5 | 5.08
318.15 K | 855.9 | 4.529
323.15 K | 852.3 | 4.062
328.15 K | 848.8 | 3.665
333.15 K | 845.2 | 3.323
338.15 K | 841.7 | 3.028
343.15 K | 838.2 | 2.771
348.15 K | 834.6 | 2.546
353.15 K | 831.1 | 2.348
358.15 K | 827.6 | 2.174
363.15 K | 824.1 | 2.019
368.15 K | 820.7 | 1.881
373.15 K | 817.3 | 1.758

CC/C=C\C/C=C\C/C=C\CCCCCCCC(=O)OCC [ethyl 9,12,15-octadecatrienoate]
Conditions | mass density [kg/m3] | viscosity [mPa·s]
278.15 K | 904.6 | 6.282
283.15 K | 900.8 | 5.538
288.15 K | 897 | 4.921
293.15 K | 893.3 | 4.401
298.15 K | 889.5 | 3.961
303.15 K | 885.8 | 3.583
308.15 K | 882 | 3.258
313.15 K | 878.3 | 2.975
318.15 K | 874.6 | 2.728
323.15 K | 870.9 | 2.511
328.15 K | 867.2 | 2.32
333.15 K | 863.5 | 2.151
338.15 K | 859.9 | 2
343.15 K | 856.2 | 1.866
348.15 K | 852.5 | 1.745
353.15 K | 848.9 | 1.636
358.15 K | 845.3 | 1.538
363.15 K | 841.6 | 1.449
368.15 K | 838 | 1.368
373.15 K | 834.5 | 1.295

CCCCCC/C=C\CCCCCCCC(=O)OC [methyl (Z)-9-hexadecenoate]
Conditions | mass density [kg/m3] | viscosity [mPa·s]
278.15 K | 880.4 | 6.169
283.15 K | 876.6 | 5.367
288.15 K | 872.8 | 4.662
293.15 K | 869 | 4.107
298.15 K | 865.2 | 3.647
303.15 K | 861.4 | 3.289
308.15 K | 857.6 | 2.943
313.15 K | 853.8 | 2.616
318.15 K | 850 | 2.422
323.15 K | 846.3 | 2.175
328.15 K | 842.5 | 2.03
333.15 K | 838.7 | 1.87
338.15 K | 834.9 | 1.728
343.15 K | 831.1 | 1.595
348.15 K | 827.3 | 1.482
353.15 K | 823.5 | 1.366
358.15 K | 819.8 | 1.29
363.15 K | 816 | 1.207

CC/C=C\C/C=C\C/C=C\CCCCCCCC(=O)OC [methyl (Z,Z,Z)-9,12,15-octadecatrienoate]
Conditions | mass density [kg/m3] | viscosity [mPa·s]
278.15 K | 913.2 | 6.361
283.15 K | 909.5 | 5.618
288.15 K | 905.7 | 5.003
293.15 K | 901.9 | 4.484
298.15 K | 898.2 | 4.043
303.15 K | 894.5 | 3.667
308.15 K | 890.7 | 3.341
313.15 K | 887 | 2.925
318.15 K | 883.3 | 2.675
323.15 K | 879.6 | 2.472
328.15 K | 876 | 2.303
333.15 K | 872.3 | 2.123
338.15 K | 868.6 | 1.966
343.15 K | 864.9 | 1.817
348.15 K | 861.2 | 1.688
353.15 K | 857.6 | 1.583
358.15 K | 853.9 | 1.488
363.15 K | 850.3 | 1.402
368.15 K | – | 1.327
373.15 K | – | 1.253

Reference: the NIST ThermoML archive (doi:10.1021/je1012235)
